Experimental data: patent US20250288704A1, “CXCR4-LIGANDS FOR DIAGNOSTIC AND THERAPEUTIC USE AND PRECURSORS THEREOF” (priority 2021, published 2025)
Non-standard residues stand in square brackets, D forms with d. Residues, ends and D or L forms follow the SMILES beside them. Groups on a side chain read outwards from the residue. *: point of attachment. DOTA = O=C(O)CN1CCN(CC(=O)O)CCN(CC(=O)*)CCN(CC(=O)O)CC1; dTyr(3-I) = N[C@H](Cc1ccc(O)c(I)c1)C(=O)O; 2Nal = N[C@@H](Cc1ccc2ccccc2c1)C(=O)O; dNMeOrn = CN[C@H](CCCN)C(=O)O; 4Abz = Nc1ccc(C(=O)O)cc1; dDap = NC[C@@H](N)C(=O)O

What was measured:
[1] = test system: Jurkat tumor-bearing CB-17 SCID mice; assay: Biodistribution in Jurkat tumor-bearing CB-17 SCID mice; assay type: in vivo; design: tissue to tissue ratio at 1 h / tissue to tissue ratio / tissue to tissue ratio at 48 h: reference not given here
Method in brief: (§1)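 CB17-SCID mice bore subcutaneous Jurkat xenografts (2-3×10^7 cells in Matrigel, shoulder), used at 5-8 mm tumor diameter. About 0.5-20 MBq (0.02-0.20 nmol) of 125I-, 177Lu-, 99mTc-, 18F- or 68Ga-labeled ligand given by tail vein; organs weighed and γ-counted after set times.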

[2] = as above; assay type: in vivo; design: tissue to tissue ratio at 1 h / tissue to tissue ratio / tissue to tissue ratio at 48 h: reference not given here; conditions: CB-17 SCID, mouse, in vivo, iv, total radioactivity
Method in brief: as §1

[3] = test system: CXCR4-expressing Chem_1 cells; assay: Determination of internalization, dual tracer with 125I-Fc-131; assay type: cell-based; conditions: of total cellular activity
Method in brief: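 Chem_1 cells grown in DMEM-F12 with 10% FBS at 37 °C; wells (n=3 per time point) received medium or AMD3100 (1 mM stock) to block receptors. Unbound, surface-bound and NaOH-lysed internalized fractions were γ-counted; data corrected for non-specific internalization and referred to standard ligand specific internalization.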

C[C@@H](NC(=O)[C@@H](CCCNC(=N)N)NC(=O)[C@@H](CN)NC(=O)CN1CCN(CC(=O)O)CCN(CC(=O)O)CCN(CC(=O)O)CC1)C(=O)Nc1ccc(C(=O)NCCC[C@@H]2C(=O)N[C@@H](CCCNC(=N)N)C(=O)N[C@@H](Cc3ccc4ccccc4c3)C(=O)NCC(=O)N[C@H](Cc3ccc(O)c(I)c3)C(=O)N2C)cc1 [CXCR4-DOTA-4 [Lu]] (cyclo([dTyr(3-I)][dNMeOrn]([4Abz-dA-dR-dDap-DOTA])R[2Nal]G))
Calculated tumor retention 6 h compared to the 1 h-value ([1]; mouse, in vivo): 126%
Calculated tumor retention 48 h compared to the 1 h-value ([1]; mouse, in vivo): 117%
tissue to tissue ratio [2]: 156
tissue to tissue ratio at 1 h [2]: 3.6
tissue to tissue ratio at 48 h [2]: 362
tissue uptake at 1 h ([2]; Tumor activity 1 h p.i.): 6.19 %ID/g
tissue uptake at 6 h ([2]; Tumor activity 6 h p.i.): 7.78 %ID/g
tissue uptake at 48 h ([2]; Tumor activity 48 h p.i.): 7.23 %ID/g
tissue uptake at 1 h ([2]; female, % iD/g Blood): 1.72 %ID/g
tissue uptake at 6 h ([2]; female, % iD/g Blood): 0.05 %ID/g
tissue uptake at 48 h ([2]; female, % iD/g Blood): 0.02 %ID/g
tissue uptake at 1 h ([2]; female, % iD/g Bone): 1.07 %ID/g
tissue uptake at 6 h ([2]; female, % iD/g Bone): 0.57 %ID/g
tissue uptake at 48 h ([2]; female, % iD/g Bone): 1.47 %ID/g
tissue uptake at 1 h ([2]; female, % iD/g Heart): 1.13 %ID/g
tissue uptake at 6 h ([2]; female, % iD/g Heart): 0.22 %ID/g
tissue uptake at 48 h ([2]; female, % iD/g Heart): 0.21 %ID/g
tissue uptake at 1 h ([2]; female, % iD/g Intestine): 0.87 %ID/g
tissue uptake at 6 h ([2]; female, % iD/g Intestine): 0.82 %ID/g
tissue uptake at 48 h ([2]; female, % iD/g Intestine): 0.28 %ID/g
tissue uptake at 1 h ([2]; female, % iD/g Kidney): 14.4 %ID/g
tissue uptake at 6 h ([2]; female, % iD/g Kidney): 11.3 %ID/g
tissue uptake at 48 h ([2]; female, % iD/g Kidney): 5.31 %ID/g
tissue uptake at 1 h ([2]; female, % iD/g Liver): 19.2 %ID/g
tissue uptake at 6 h ([2]; female, % iD/g Liver): 20.5 %ID/g
tissue uptake at 48 h ([2]; female, % iD/g Liver): 21.7 %ID/g
tissue uptake at 1 h ([2]; female, % iD/g Lung): 3.69 %ID/g
tissue uptake at 6 h ([2]; female, % iD/g Lung): 0.6 %ID/g
tissue uptake at 48 h ([2]; female, % iD/g Lung): 0.47 %ID/g
tissue uptake at 1 h ([2]; female, % iD/g Muscle): 0.3 %ID/g
tissue uptake at 6 h ([2]; female, % iD/g Muscle): 0.07 %ID/g
tissue uptake at 48 h ([2]; female, % iD/g Muscle): 0.05 %ID/g
tissue uptake at 1 h ([2]; female, % iD/g Pancreas): 0.52 %ID/g
tissue uptake at 6 h ([2]; female, % iD/g Pancreas): 0.16 %ID/g
tissue uptake at 48 h ([2]; female, % iD/g Pancreas): 0.24 %ID/g
tissue uptake at 1 h ([2]; female, % iD/g Spleen): 4.57 %ID/g
tissue uptake at 6 h ([2]; female, % iD/g Spleen): 2.68 %ID/g
tissue uptake at 48 h ([2]; female, % iD/g Spleen): 3.63 %ID/g
tissue uptake at 1 h ([2]; female, % iD/g Stomach): 1.35 %ID/g
tissue uptake at 6 h ([2]; female, % iD/g Stomach): 0.41 %ID/g
tissue uptake at 48 h ([2]; female, % iD/g Stomach): 0.23 %ID/g
tissue uptake at 1 h ([2]; female, % iD/g Tumor): 6.19 %ID/g
tissue uptake at 6 h ([2]; female, % iD/g Tumor): 7.78 %ID/g
tissue uptake at 48 h ([2]; female, % iD/g Tumor): 7.23 %ID/g

CC[C@H](C)[C@@H]([C@@H](CC(=O)N1CCC[C@H]1[C@H](OC)[C@@H](C)C(=O)N[C@H](C)C(O)c1ccccc1)OC)N(C)C(=O)[C@@H](NC(=O)[C@H](C(C)C)N(C)C(=O)OCc1ccc(NC(=O)[C@H](CCCNC(N)=O)NC(=O)[C@@H](NC(=O)CCCCCN2C(=O)CC(SCC[C@@H](N)C(=O)N[C@H](CCCNC(=N)N)C(=O)N[C@H](C)C(=O)Nc3ccc(C(=O)NCCC[C@@H]4C(=O)N[C@@H](CCCNC(=N)N)C(=O)N[C@@H](Cc5ccc6ccccc6c5)C(=O)NCC(=O)N[C@H](Cc5ccc(O)cc5)C(=O)N4C)cc3)C2=O)C(C)C)cc1)C(C)C (stereo partly shown) [^125I-CXCR4-MMAE −2]
Cell-bound [%] ([3]; 10 min): 1.56 ± 0.78%
Internalized [%] ([3]; 10 min): 2.55 ± 0.34%
Cell-bound [%] ([3]; 30 min): 2.09 ± 0.64%
Internalized [%] ([3]; 30 min): 7.78 ± 0.58%
Cell-bound [%] ([3]; 60 min): 0.73 ± 0.54%
Internalized [%] ([3]; 60 min): 14.6 ± 0.89%
Cell-bound [%] ([3]; 120 min): 0.27 ± 0.35%
Internalized [%] ([3]; 120 min): 27.9 ± 1.14%
% iD/g Blood ([1]; Blood, 1 h p.i., Jurkat xenograft, CB-17 SCID female mice): 2.28 % iD/g
% iD/g Bone ([1]; Bone, 1 h p.i., Jurkat xenograft, CB-17 SCID female mice): 0.80 % iD/g
% iD/g Heart ([1]; Heart, 1 h p.i., Jurkat xenograft, CB-17 SCID female mice): 1.31 % iD/g
% iD/g Intestine ([1]; Intestine, 1 h p.i., Jurkat xenograft, CB-17 SCID female mice): 1.13 % iD/g
% iD/g Kidney ([1]; Kidney, 1 h p.i., Jurkat xenograft, CB-17 SCID female mice): 18.3 % iD/g
% iD/g Liver ([1]; Liver, 1 h p.i., Jurkat xenograft, CB-17 SCID female mice): 27.8 % iD/g
% iD/g Lung ([1]; Lung, 1 h p.i., Jurkat xenograft, CB-17 SCID female mice): 3.67 % iD/g
% iD/g Muscle ([1]; Muscle, 1 h p.i., Jurkat xenograft, CB-17 SCID female mice): 0.33 % iD/g
% iD/g Pancreas ([1]; Pancreas, 1 h p.i., Jurkat xenograft, CB-17 SCID female mice): 0.80 % iD/g
% iD/g Spleen ([1]; Spleen, 1 h p.i., Jurkat xenograft, CB-17 SCID female mice): 4.31 % iD/g
% iD/g Stomach ([1]; Stomach, 1 h p.i., Jurkat xenograft, CB-17 SCID female mice): 1.85 % iD/g
% iD/g Tumor ([1]; Tumor, 1 h p.i., Jurkat xenograft, CB-17 SCID female mice): 2.41 % iD/g
